Measured values as given in ChEMBL document CHEMBL1201862, “PubChem BioAssay data set” (2004).
The source made the active and inactive calls.

Key:
[1] = HEp-2 cell cytotoxicity, dose response, cytotoxicity control for RSV inhibitor project, HTS (AID 2410); type: functional; details: human respiratory syncytial virus
Caspase-3 = biological target: T1, Caspase-3 (Homo sapiens, UniProt P42574); type: functional;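 also: Dose-response selectivity test against caspase-3 for candidate inhibitors of sentrin-specific proteases (SENPs)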
T1 sequence (P42574 whole entry): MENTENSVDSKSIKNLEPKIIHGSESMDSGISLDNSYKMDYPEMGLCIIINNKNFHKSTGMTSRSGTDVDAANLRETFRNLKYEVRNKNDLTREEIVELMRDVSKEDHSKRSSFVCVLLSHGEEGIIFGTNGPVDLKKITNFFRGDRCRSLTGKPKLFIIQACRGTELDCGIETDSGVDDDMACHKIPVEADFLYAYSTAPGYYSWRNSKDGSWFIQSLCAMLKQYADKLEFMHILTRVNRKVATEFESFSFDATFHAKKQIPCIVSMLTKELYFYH

[2] = biological target: T2, Sentrin-specific protease 7 (Homo sapiens, UniProt Q9BQF6); type: functional;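 also: Luminescence-based dose-response confirmation of ultra-high-throughput screening hits, measuring inhibition of SENP7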
T2 sequence (Q9BQF6 whole entry): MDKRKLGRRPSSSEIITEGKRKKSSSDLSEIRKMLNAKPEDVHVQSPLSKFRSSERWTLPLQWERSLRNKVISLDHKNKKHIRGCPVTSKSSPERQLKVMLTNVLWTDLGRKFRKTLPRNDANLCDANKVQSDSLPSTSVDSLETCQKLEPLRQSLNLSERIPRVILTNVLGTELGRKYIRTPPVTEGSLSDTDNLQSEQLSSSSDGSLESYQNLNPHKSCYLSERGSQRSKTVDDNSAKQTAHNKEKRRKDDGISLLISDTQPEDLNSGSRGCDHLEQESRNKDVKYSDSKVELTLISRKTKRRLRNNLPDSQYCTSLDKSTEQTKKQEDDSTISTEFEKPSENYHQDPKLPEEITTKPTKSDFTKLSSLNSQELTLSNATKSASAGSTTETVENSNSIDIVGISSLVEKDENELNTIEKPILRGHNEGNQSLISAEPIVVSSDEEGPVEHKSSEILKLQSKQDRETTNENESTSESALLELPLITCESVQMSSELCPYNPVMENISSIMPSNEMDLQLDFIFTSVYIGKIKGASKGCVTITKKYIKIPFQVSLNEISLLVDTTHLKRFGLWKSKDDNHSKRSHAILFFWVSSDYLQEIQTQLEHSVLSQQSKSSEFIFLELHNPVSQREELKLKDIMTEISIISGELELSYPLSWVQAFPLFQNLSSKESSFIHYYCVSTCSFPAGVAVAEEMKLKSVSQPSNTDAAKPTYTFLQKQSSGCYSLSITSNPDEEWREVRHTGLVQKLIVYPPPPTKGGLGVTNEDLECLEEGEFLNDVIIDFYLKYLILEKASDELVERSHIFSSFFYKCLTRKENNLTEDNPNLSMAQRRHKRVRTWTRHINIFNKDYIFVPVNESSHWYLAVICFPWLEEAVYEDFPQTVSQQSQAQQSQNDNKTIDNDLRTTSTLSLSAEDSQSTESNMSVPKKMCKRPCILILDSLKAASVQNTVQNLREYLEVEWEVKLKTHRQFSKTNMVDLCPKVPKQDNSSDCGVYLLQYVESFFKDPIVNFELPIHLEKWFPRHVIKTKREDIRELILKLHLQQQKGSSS

[3] = biological target: T3, Sentrin-specific protease 6 (Homo sapiens, UniProt Q9GZR1); type: functional;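 also: Luminescence-based dose-response confirmatory assay of SENP6 inhibition, following up an ultra-high-throughput screen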
T3 sequence (Q9GZR1 whole entry): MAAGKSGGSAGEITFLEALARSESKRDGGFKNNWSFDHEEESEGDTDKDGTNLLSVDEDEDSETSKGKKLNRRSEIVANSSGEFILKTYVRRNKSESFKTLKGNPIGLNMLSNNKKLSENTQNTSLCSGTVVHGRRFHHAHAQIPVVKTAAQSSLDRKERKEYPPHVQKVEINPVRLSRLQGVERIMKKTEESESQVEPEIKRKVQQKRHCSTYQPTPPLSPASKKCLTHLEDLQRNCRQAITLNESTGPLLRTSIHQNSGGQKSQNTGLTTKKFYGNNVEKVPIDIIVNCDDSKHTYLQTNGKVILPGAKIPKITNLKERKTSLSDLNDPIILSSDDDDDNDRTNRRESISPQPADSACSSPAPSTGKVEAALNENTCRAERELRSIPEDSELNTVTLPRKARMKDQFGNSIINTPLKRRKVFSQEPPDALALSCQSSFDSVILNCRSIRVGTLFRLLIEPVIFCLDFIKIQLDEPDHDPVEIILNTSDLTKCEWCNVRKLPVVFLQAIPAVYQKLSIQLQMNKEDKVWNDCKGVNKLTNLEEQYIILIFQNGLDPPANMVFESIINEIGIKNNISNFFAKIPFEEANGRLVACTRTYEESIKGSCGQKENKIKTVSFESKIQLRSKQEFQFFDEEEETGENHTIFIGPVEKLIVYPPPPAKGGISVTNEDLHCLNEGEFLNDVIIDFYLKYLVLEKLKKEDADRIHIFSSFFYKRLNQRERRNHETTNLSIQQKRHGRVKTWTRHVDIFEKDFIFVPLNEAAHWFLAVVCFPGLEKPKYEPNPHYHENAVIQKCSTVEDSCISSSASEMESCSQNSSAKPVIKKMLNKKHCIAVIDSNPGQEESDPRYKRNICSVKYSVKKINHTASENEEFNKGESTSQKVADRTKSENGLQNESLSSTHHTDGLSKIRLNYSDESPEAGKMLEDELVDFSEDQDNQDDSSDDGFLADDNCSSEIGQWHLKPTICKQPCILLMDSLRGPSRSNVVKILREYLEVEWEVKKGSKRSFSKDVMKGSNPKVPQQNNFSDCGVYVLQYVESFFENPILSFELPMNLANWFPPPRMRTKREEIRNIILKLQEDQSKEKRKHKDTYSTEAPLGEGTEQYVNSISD

[4] = biological target: T4, Sentrin-specific protease 8 (Homo sapiens, UniProt Q96LD8); type: functional;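 also: luminescence read-out of SENP8 inhibition, dose-response confirmation following an ultra-high-throughput screen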
T4 sequence (Q96LD8 whole entry): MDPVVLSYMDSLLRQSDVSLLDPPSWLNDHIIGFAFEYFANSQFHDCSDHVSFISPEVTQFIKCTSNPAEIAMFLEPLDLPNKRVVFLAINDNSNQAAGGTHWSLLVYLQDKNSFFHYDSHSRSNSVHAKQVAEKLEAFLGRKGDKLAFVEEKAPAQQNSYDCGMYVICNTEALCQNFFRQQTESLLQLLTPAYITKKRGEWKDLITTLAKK

[5] = inhibitors of intracellular T. cruzi replication, confirmation, NIH3T3 host cells, beta-gal luminescence (AID 2044); type: functional, cell-based;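 also: intracellular parasites grown in NIH/3T3 mouse fibroblasts as host cells; luminescent beta-galactosidase reporter signal from transgenic T. cruzi replicating inside host cells; inhibitors lower the luminescence signal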
[6] = cytotoxicity toward NIH3T3 fibroblasts, dose response, counter-screen, cell-based, ATP luminescence, mouse fibroblasts (AID 2010); type: functional;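 also: cells exposed to compound for about 90 hours before reading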
[7] = biological target: T5, Polyadenylate-binding protein 1 (Homo sapiens, UniProt P11940); experiment: PABP1 MLLE–PAM2 interaction inhibitors, dose response, miRNA deadenylation inhibitor project, biochemical, fluorescence polarization, Cy5-PAM2 peptide, secondary (AID 602260); type: functional; details: read-out: IC50_Mean
T5 sequence (P11940 whole entry): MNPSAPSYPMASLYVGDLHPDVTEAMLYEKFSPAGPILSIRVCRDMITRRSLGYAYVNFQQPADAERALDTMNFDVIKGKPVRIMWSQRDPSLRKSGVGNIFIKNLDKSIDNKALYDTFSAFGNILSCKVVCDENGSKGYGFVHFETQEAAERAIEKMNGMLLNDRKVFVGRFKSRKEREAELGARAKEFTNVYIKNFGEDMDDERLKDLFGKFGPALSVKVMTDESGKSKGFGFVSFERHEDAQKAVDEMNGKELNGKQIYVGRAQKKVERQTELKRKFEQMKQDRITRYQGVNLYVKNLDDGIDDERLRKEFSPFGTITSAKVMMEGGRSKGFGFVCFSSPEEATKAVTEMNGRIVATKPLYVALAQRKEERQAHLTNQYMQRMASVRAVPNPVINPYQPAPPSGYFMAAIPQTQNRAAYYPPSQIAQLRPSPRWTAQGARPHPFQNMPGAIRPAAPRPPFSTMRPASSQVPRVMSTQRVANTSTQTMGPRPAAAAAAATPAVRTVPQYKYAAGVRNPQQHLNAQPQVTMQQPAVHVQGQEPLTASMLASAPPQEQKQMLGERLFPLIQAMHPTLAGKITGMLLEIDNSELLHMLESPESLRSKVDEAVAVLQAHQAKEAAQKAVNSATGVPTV

[8] = biological target: T5, Polyadenylate-binding protein 1; experiment: PABP1 MLLE–PAM2 binding inhibitor potency, dose response, biochemical, fluorescence polarization, FITC-PAM2 peptide (AID 602259); type: functional; details: read-out: IC50_Mean
INS1 = experiment: beta cell apoptosis inhibitors, cytokine rescue, dose response, luminescence, retest (AID 449756); type: functional, cell-based; details: Rattus norvegicus;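 also: cell death triggered by IL-1 beta plus TNF-alpha plus IFN-gamma mixture; protective hits raise ATP signal compared with cytokine alone wells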
[9] = Shn3 3'UTR reporter inhibitors, dose response, cell-based, Clone20 osteoblasts, firefly luciferase, cherry-picked (AID 624132); type: functional;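 also: firefly luciferase luminescence from reporter carrying the Shn3 3'UTR in osteoblasts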
[10] = HepG2 cell cytotoxicity, dose response, cytotoxicity control for Shn3 inhibitor project, CellTiter-Glo, cherry-picked (AID 624134); type: functional, cell-based
[11] = control 3'UTR Renilla luciferase suppression, dose response, counter-screen for Shn3 inhibitor project, cell-based, Clone20-Shn3RL, cherry-picked (AID 624133); type: functional
[12] = Luminescence Cell-Based Dose Confirmation HTS to Identify Activators of 5'UTR Stem-Loop Driven Alpha-Synuclein mRNA Translation in H4 Neuroglioblastoma Cells. [Related pubchem assays: 1829 (Project Summary), 1814 (Primary HTS)]; type: functional
[13] = Luminescence Cell-Based Dose Response HTS to Identify Activators of Luciferase Translation or Activity in H4 […] Cells. [Related pubchem assays: 1829 (Project Summary), 1814 (Primary HTS)]; type: functional
H4 = experiment: Luminescence Cell-Based Dose Response HTS to Identify Activators of 5'UTR Stem-Loop Driven Prion Protein mRNA Translation in H4 Neuroglioblastoma Cells. [Related pubchem assays: 1829 (Project Summary), 1814 (Primary HTS)]; type: functional; details: Homo sapiens
[14] = microbe, parasite or virus in culture; type: functional; details: Mycobacterium tuberculosis
[15] = Luminescence Cell-Based Dose Retest to Confirm Inhibitors of Cancer Stem Cells. [Related pubchem assays (depositor defined):AID2717, AID2721]; type: functional; details: Homo sapiens
[16] = LGR2 antagonists, dose response, cell-based, HEK293, CRE-luciferase reporter, cherry pick, set 2 (AID 743343); type: functional;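 also: transfected cells were stimulated with diluted bursicon conditioned medium after compound addition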
[17] = MC4R antagonists, dose response, counter-screen for LGR2 antagonist project, cell-based, plate reader, cherry pick (AID 743444); type: functional;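 also: transfected HEK 293 cells stimulated with alpha-MSH peptide; potency of inhibitors of the alpha-MSH evoked signal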
Cytochrome P450 1A2 = biological target: T6, Cytochrome P450 1A2 (Homo sapiens, UniProt P05177);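 also: PubChem cytochrome P450 panel assay, CYP1A2 panel member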
T6 sequence (P05177 whole entry): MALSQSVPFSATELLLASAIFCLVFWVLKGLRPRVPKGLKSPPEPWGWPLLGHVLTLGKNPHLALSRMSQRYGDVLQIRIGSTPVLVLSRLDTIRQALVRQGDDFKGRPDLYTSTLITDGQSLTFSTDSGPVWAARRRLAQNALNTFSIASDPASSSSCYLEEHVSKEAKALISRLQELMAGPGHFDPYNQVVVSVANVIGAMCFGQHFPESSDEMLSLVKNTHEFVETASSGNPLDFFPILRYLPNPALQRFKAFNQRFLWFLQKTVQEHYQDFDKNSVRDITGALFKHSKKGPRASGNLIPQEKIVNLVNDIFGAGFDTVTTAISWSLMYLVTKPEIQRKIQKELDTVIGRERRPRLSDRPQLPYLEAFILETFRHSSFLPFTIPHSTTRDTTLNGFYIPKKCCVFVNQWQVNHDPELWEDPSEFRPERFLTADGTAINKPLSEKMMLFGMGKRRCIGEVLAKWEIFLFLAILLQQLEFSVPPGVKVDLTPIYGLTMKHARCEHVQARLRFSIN

Fatty acid synthase = Fatty acid synthase (Homo sapiens, UniProt P49327); experiment: FAS thioesterase domain inhibitors, dose response, biochemical, kinetic fluorescence intensity (AID 624326); type: functional;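 also: rate of fluorescence rise from hydrolysis of a fluorogenic O-methyl fluorescein ester substrate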
Fatty acid synthase, sequence (P49327 whole entry, the tested form may be a part): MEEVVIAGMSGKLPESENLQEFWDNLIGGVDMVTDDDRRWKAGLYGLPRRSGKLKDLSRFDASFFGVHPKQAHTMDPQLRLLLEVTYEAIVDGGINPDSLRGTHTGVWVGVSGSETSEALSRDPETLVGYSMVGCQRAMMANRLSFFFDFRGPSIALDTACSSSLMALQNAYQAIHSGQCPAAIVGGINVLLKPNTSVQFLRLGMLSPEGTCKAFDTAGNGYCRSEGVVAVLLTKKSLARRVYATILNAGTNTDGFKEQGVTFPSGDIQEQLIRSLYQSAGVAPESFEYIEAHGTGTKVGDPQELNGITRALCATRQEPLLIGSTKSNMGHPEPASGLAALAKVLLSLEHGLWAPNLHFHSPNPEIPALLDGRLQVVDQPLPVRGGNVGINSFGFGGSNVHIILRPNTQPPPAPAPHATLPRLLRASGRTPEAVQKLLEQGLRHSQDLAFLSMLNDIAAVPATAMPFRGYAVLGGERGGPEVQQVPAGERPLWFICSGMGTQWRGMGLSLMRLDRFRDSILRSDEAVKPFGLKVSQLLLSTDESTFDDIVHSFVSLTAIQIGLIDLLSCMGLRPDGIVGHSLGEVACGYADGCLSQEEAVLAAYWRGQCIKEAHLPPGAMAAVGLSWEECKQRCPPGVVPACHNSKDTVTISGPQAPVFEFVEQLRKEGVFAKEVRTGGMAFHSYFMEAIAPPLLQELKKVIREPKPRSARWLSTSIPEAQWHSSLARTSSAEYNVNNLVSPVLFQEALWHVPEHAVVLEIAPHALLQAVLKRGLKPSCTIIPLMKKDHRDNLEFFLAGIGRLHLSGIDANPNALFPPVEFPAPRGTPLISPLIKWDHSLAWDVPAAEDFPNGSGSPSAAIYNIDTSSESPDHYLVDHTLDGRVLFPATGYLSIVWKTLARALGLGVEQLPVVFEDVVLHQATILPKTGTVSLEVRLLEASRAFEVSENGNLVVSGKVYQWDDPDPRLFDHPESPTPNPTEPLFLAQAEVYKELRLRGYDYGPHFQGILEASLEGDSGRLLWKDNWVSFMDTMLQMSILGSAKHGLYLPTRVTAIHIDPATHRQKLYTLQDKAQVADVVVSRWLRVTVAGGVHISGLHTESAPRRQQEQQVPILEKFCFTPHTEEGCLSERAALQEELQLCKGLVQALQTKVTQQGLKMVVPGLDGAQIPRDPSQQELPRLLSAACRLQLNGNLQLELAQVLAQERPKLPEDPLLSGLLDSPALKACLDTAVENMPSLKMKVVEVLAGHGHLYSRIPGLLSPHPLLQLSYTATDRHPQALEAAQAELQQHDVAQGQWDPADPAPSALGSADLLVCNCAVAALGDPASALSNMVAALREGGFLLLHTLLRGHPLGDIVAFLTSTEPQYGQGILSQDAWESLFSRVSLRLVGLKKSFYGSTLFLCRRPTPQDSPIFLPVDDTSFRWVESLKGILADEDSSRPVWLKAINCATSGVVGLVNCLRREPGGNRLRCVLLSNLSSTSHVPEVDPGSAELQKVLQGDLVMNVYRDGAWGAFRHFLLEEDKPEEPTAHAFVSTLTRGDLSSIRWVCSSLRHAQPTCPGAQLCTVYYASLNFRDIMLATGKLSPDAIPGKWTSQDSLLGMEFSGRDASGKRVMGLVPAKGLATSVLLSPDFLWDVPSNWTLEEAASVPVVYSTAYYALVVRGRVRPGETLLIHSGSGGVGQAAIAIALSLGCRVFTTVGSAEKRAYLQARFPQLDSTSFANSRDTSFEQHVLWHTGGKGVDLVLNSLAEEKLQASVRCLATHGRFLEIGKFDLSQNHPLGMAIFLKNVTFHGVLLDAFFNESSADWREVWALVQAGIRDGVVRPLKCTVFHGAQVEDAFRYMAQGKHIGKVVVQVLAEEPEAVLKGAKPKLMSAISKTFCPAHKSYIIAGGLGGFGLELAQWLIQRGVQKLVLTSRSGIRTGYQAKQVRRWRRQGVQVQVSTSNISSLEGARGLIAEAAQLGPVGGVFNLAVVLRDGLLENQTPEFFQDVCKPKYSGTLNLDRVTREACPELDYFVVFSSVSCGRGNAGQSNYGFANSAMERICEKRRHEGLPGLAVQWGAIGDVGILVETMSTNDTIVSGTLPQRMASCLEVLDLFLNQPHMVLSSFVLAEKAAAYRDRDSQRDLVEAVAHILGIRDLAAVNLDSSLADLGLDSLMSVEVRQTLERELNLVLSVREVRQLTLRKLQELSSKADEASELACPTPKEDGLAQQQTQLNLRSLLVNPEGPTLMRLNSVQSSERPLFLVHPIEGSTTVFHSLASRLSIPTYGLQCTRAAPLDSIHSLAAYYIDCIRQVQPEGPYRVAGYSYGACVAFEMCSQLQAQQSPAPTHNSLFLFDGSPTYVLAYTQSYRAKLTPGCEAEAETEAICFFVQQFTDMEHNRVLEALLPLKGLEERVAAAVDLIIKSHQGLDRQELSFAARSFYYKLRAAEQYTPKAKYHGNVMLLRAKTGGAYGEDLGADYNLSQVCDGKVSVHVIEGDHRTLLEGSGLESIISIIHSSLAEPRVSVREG

[18] = cytotoxicity in HPDE-C7 cells, cell-based, fluorescence, HTS (AID 430); type: functional; details: Homo sapiens
[19] = cytotoxicity in KRAS-transformed pancreatic duct cells, primary screen, cell-based, fluorescence, HTS (AID 431); type: functional; details: Homo sapiens;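 also: cell line used: HPDE-C7K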

O=C(Oc1ccc2ccccc2c1Cl)N1CCCCCC1
CC50 [1]: 27.6 µM (active)
IC50 (Caspase-3): 17.4 µM (active)
IC50 [2]: 7.15 µM (active)
IC50 [3]: 10.6 µM (active)
IC50 [4]: 15.4 µM (active)

Sc1nnc2c3ccccc3n(CCc3ccccc3)c2n1
CC50 [1]: 23.8 µM (active)
EC50 [5]: 2.69 µM (active)
EC50 [6]: > 60 µM (not active)
IC50 [7]: > 66 µM (inactive)
IC50 [8]: > 66 µM (inactive)

COc1ccccc1/C=C/CN1CCC(n2nccc2NC(=O)CCc2ccccc2)CC1
AC50 (INS1): 5.75 µM (active)
AC50 [9]: 1.91 µM (active)
AC50 [10]: 42.3 µM (active)
AC50 [11]: 4.23 µM (active)

COc1ccc(C2CC(c3cccs3)=Nc3ccccc3S2)cc1 (stereo unspecified)
EC50 [12]: 7.19 µM (active)
EC50 [13]: 9.21 µM (active)
EC50 (H4): 7.12 µM (active)
CC50 [14]: > 40 µM (active)
IC50 [7]: > 66 µM (inactive)
IC50 [8]: > 66 µM (inactive)

CC(C)Oc1ccc(CNC(=O)CC(c2ccccc2)c2cc(Cl)ccc2O)cc1 (stereo unspecified)
EC50 [5]: 2.17 µM (active)
EC50 [6]: > 30 µM (not active)
AC50 [15]: 5.73 µM (active)
AC50 [16]: 28 µM (active)
AC50 [17]: 26.7 µM (active)
AC50 (Cytochrome P450 1A2): 28.2 µM (inconclusive)

CC(=O)c1cc(-c2ccccc2)[nH]c1N1CCOCC1
IC50 [7]: > 66 µM (inactive)
IC50 [8]: > 66 µM (inactive)

COc1cc(/C=C/C(=O)Nc2nnc(C(C)(C)C)s2)cc(OC)c1OC
IC50 [7]: > 66 µM (inactive)
IC50 [8]: > 66 µM (inactive)

CN(CC(=O)Nc1ccccc1Cl)C(=O)c1cccc(S(=O)(=O)N2CCN(Cc3ccccc3)CC2)c1
AC50 [9]: 3.47 µM (active)
AC50 [10]: 50.5 µM (active)
AC50 [11]: 4.83 µM (active)

COc1ccc(Cc2c(C(C)(C)C)nc3c(C)cc(Br)cn23)c(C)c1
IC50 [7]: > 66 µM (inactive)
IC50 [8]: 52.7 µM (inactive)

Cc1ccc(Oc2cc(-n3nc(C)cc3C)ncn2)cc1
IC50 (Caspase-3): 23.5 µM (active)
IC50 [2]: 9.25 µM (active)
IC50 [3]: 35.7 µM (active)
IC50 [4]: 54.7 µM (active)

N=c1oc2ccccc2cc1C(=O)Nc1ccccc1
IC50 (Caspase-3): 13.6 µM (active)
IC50 [2]: 11.4 µM (active)
IC50 [3]: 15.6 µM (active)
IC50 [4]: > 100 µM (inactive)

Cc1ccc(C)c(S(=O)(=O)N2CCN(c3ncnc4sccc34)CC2)c1
AC50 [15]: 1.25 µM (active)
AC50 (INS1): 3.41 µM (active)
AC50 [9]: 0.631 µM (active)
AC50 [10]: 2.55 µM (active)
AC50 [11]: 2.38 µM (active)

CC(C)(C)OC(=O)NCCCC[C@H](NC(=O)c1[nH]cnc1C(=O)NC1CCN(C(=O)OC(C)(C)C)CC1)C(=O)OC(C)(C)C
IC50 (Fatty acid synthase): 1.6 µM (active)

CCCC1(CCC)C(=O)N=C(NCc2ccccc2)NC1=O
EC50 [18]: 14.4 µM (active)
EC50 [19]: 13.4 µM (active)
